Four compounds from ChEMBL document CHEMBL1201862, “PubChem BioAssay data set” (2004) can be followed below.

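1) Cells in 96-well plates. 2) Compound, 48 h, 5 concentrations. 3) Linear interpolation between surrounding doses. 4) Unreached endpoint = highest concentration. Abbreviation: GI50, concentration required for 50% inhibition of growth.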 Active and inactive are the calls of the source. No stated cut-off is given here; in the data, active = GI50 up to about 1.1 µM and inactive = higher.

Test systems include BT-549; HCC 2998; HCT-116; HCT-15; IGROV-1; K562; MCF7; MDA-MB-231; MDA-MB-435; MDA-N; NCI-H226; NCI/ADR-RES; PC-3; SF-295; SF-539; SK-MEL-28; SK-MEL-5; UO-31; NCI-H460.
What all share (assay): growth of human tumour cells (NCI), 48 h

Consider `O=C(Nc1ccccc1)N(C1=NCC(CI)S1)c1ccc(F)cc1F` (stereo not drawn), for which the GI50 in the assay on BT-549 is 26.5 µM (inactive); with HCC 2998, 74.3 µM (inactive); in the assay with HCT-116 it was 55.2 µM (inactive); with HCT-15, 25 µM; in the assay with IGROV-1, 20.9 µM (inactive); in the assay on K562, 41.5 µM (inactive). In addition, the GI50 in the assay on MCF7 is 41.6 µM (inactive); in the assay on MDA-MB-231, 20.2 µM (inactive); in the assay with MDA-MB-435, 50.1 µM (inactive); in the assay with MDA-N it was 35.9 µM (inactive); in the assay on NCI-H226 it was 87.3 µM (inactive); with NCI/ADR-RES it was > 100 µM (inactive). The GI50 with PC-3 is 67.1 µM (inactive); in the assay on SF-295, > 100 µM (inactive); with SF-539, 59.3 µM (inactive); in the assay on SK-MEL-28, 24.1 µM (inactive); in the assay on SK-MEL-5, 46 µM (inactive); in the assay on UO-31, > 100 µM (inactive).

Turning to `COC(=O)[C@]12CC3C=CC1N(C3)C(CBr)c1c2n(S(=O)(=O)c2ccccc2)c2ccccc12` (stereo partly drawn), the GI50 with BT-549 is > 100 µM (inactive); with HCC 2998, > 100 µM (inactive); in the assay on HCT-116 it was 47.9 µM (inactive); with HCT-15, 72.8 µM; with IGROV-1 it was 72.9 µM (inactive); in the assay on K562, 0.118 µM (active). The GI50 with MCF7 was 46.9 µM (inactive); with MDA-MB-231 it was 57.1 µM (inactive); in the assay with MDA-MB-435, 76.2 µM (inactive); with MDA-N, 60.1 µM (inactive); with NCI-H226 it was 41.7 µM (inactive); in the assay on NCI-H460, 98.6 µM (inactive). Further, the GI50 in the assay on NCI/ADR-RES is > 100 µM (inactive); in the assay on PC-3 it was 42.8 µM (inactive); in the assay with SF-295, 42.2 µM (inactive); in the assay on SK-MEL-28 it was > 100 µM (inactive); with SK-MEL-5 it was > 100 µM (inactive); with UO-31, > 100 µM (inactive).

Consider `Cc1c(-c2nc3ccccc3[nH]2)c(=O)n(-c2ccccc2)n1C`, for which the GI50 was > 100 µM (inactive) with BT-549; > 100 µM (inactive) in the assay with HCC 2998; > 100 µM (inactive) in the assay with HCT-116; over 100 µM with HCT-15; > 100 µM (inactive) in the assay with IGROV-1; > 100 µM (inactive) in the assay with K562. Further, the GI50 in the assay with MCF7, in the assay with MDA-MB-231, in the assay with MDA-MB-435, with MDA-N, in the assay on NCI-H226 and with NCI-H460 was > 100 µM (inactive) in each case. The GI50 in the assay with NCI/ADR-RES, with PC-3, in the assay with SF-295, with SF-539, in the assay on SK-MEL-28 and in the assay on SK-MEL-5 was > 100 µM (inactive) each time. Also, in the assay on UO-31, the GI50 is > 100 µM (inactive).

For `O=C1NN=C2C=C(c3ccc(Cl)cc3)CC(c3cccc(Cl)c3)C12` (stereo not drawn), the GI50 was 58.2 µM (inactive) in the assay on BT-549; 17.1 µM (inactive) in the assay on HCC 2998; 18.5 µM (inactive) in the assay with HCT-116; 13.9 µM with HCT-15; 19.6 µM (inactive) with IGROV-1; 17.1 µM (inactive) with K562. Also, the GI50 in the assay on MCF7 was 17.3 µM (inactive); in the assay on MDA-MB-231, 17.7 µM (inactive); in the assay with MDA-MB-435, 19.1 µM (inactive); in the assay on MDA-N, 23.4 µM (inactive); in the assay with NCI-H226, 20.4 µM (inactive); in the assay with NCI-H460, 19 µM (inactive). Also, the GI50 with NCI/ADR-RES was 39 µM (inactive); with PC-3, 31.8 µM (inactive); in the assay with SF-295 it was 18.7 µM (inactive); in the assay on SF-539, 24.5 µM (inactive); with SK-MEL-5, 18.5 µM (inactive); in the assay on UO-31, 19.3 µM (inactive).
